Results published in patent US20240252472A1, “COMBINATIONS FOR TREATING CANCER” (Purdue Pharma L.P., priority 2023, published 2024).

Assays:
[1] = tested on: MM1S-luc derived tumors; test: Disseminated human myeloma model, CB17-SCID mice; type: in vivo; conditions: EDO-S101 15 mg/kg i.v. weekly, daratumumab 8 mg/kg i.p. weekly, 4 weeks; vehicle 33 days
Procedure: MM1S-luc cells (3×10^6) were injected intravenously (i.v.) into CB17-SCID mice which were determined to have normal NK cells, monocytes and granulocytes (The Jackson Laboratory, Bar Harbor, ME, USA). Tumor development was monitored by non-invasive bioluminescence imaging (BLI) with a Xenogen IVIS 50 system (Caliper Life Sciences, Hopkinton, MA, USA). Mice were randomized into four groups (n=5/group): one receiving vehicle (i.v., weekly), another group receiving EDO-S101 (15 mg/kg i.v., weekly on Tuesdays), another group receiving daratumumab (8 mg/kg i.p., weekly on Wednesdays) and the last group receiving the double combination of EDO-S101+daratumumab. Both drugs were administered over a period of 4 weeks.
CB17-SCID mice bearing MM1S-luc derived tumors were treated with EDO-S101, daratumumab, a combination thereof, or vehicle, in accordance with the methods outlined above. MM1S-Luc cells (3×10^6) were intravenously injected into CB17-SCID mice. After 2 weeks, mice were randomized into four groups: one receiving vehicle (i.v., weekly), another group receiving EDO-S101 (15 mg/kg i.v., weekly on Tuesdays), another group receiving daratumumab (8 mg/kg i.p., weekly on Wednesdays) and the last group received the double combination of EDO-S101+daratumumab. Survival of mice analyzed with a Kaplan-Meier curve. Both drugs were administered over a period of 4 weeks.

[2] = tested on: MOLP-8 cells; test: Daratumumab cross-linking mediated apoptosis after EDO-S101 pre-treatment; type: cell-based, human; conditions: MOLP-8 pre-treated with EDO-S101 2.5 μM 48 h, daratumumab 1 μg/mL 24 h + F(ab)2; vs not pre-treated, p=0.0454
Procedure: ADCC, CDC and apoptosis via cross-linking To assess the effect of tinostamustine pre-treatment on cytotoxic mechanisms mediated by daratumumab, MM cell lines were first incubated in presence of tinostamustine (2.5 μM) or DMSO for 48 hours. Cells were then washed to remove tinostamustine or DMSO from the culture medium, and the corresponding cytotoxic assay (ADCC, CDC or apoptosis via cross-linking) was performed.
For the evaluation of ADCC, tinostamustine or DMSO pre-treated cells were cocultured with NK cells obtained from healthy donors in the presence of daratumumab (1 μg/ml) or the corresponding isotype control for 4 hours (ratio 1:1). […] In all three assays, the cytotoxic effect on MM cells was evaluated by flow cytometry with Annexin V/7AAD staining after treatment with daratumumab. […]
MM cells (MOLP-8 cells pre-treated with 0, 0.1, 0.5, 1 or 2.5 μM EDO-S101 for 48 hours in accordance with the methods outlined above) were incubated for 24 hours in the presence of 1 μg/mL daratumumab or the corresponding isotype control, along with 10 μg/mL F(ab)2 fragments for cross-linking. Apoptosis was evaluated by flow cytometry in accordance with the methods outlined above, using AnnexinV/7AAD staining. The effect of EDO-S101 on the crosslinking-mediated apoptosis induced by daratumumab was assessed using the following formula: […]

[3] = tested on: IRF-1; test: Western blot of transcription factors in MM cell lines; type: cell-based, human; conditions: MOLP-8 cell line; 1 and 2.5 μM, 48 h
Procedure: (§1) Western Blot Analysis Cells were collected and centrifuged at 1200 rpm for 5 minutes at 4° C. Cells were washed with PBS and lysed in ice-cold lysis buffer [140 mmol/L NaCl, 10 mmol/L EDTA, 10% glycerol, 1% NP40, 20 mmol/L Tris (pH 7), 1 μMol/L pepstatin, 1 μg/mL aprotinin, 1 μg/mL leupeptin, 1 mmol/L sodium orthovanadate]. Samples were centrifuged at 10,000×g at 4° C. for 10 minutes, and supernatants were transferred to new tubes and western blots were performed following standard procedures. CD38 and anti-α-tubulin primary antibodies used in Western blot analyses were obtained from Cell Signaling (Boston, MA, USA). The horseradish peroxidase-conjugated secondary antibodies were from GE Healthcare (Chicago, IL, USA).
(§2) To determine the mechanism by which EDO-S101 increases CD38 expression, the expression of the transcription factors NF-κB, AP-1 and IRF-1 which are known to be involved in regulating the expression of CD38 was evaluated. Treatment with EDO-S101 (1 and 2.5 μM) for 48 h increased the expression of c-Jun and c-Fos (subunits of the transcription factor AP-1) in two (MM1.S and RPMI-8226) of the four myeloma cell lines tested (FIG. 5). Additionally, EDO-S101 increased IRF-1 expression in the MOLP-8 cell line (FIG. 5).

[4] = tested on: c-Jun and c-Fos (subunits of the transcription factor AP-1); test: as above; type: cell-based, human; conditions: MM1.S and RPMI-8226 (two of four lines); 1 and 2.5 μM, 48 h
Procedure: as §1, §2

[5] = tested on: JJN3; test: Percentage of viable MM cells after treatment; type: cell-based; conditions: Homo sapiens, JJN-3, read-out: percentage of viable cells
Procedure: (§3) Cell Treatment with EDO-S101 MM cells (MM1S, JJN3, KMS12-BM, RPMI-8226, U266, MOLP-8) were either treated with a control (0 μM EDO-S101, DMSO vehicle) or treated with EDO-S101 (0.1, 0.5, 1 or 2.5 μM in DMSO) for 48 hours, unless indicated otherwise.

[6] = tested on: MOLP-8; test: Percentage of viable MM cells after treatment; type: cell-based; conditions: Homo sapiens, MOLP-8, read-out: percentage of viable cells
Procedure: as §3

Cn1c(CCCCCCC(=O)NO)nc2cc(N(CCCl)CCCl)ccc21 [EDO-S101, 7-(5-(bis(2-chloroethyl)amino)-1-methyl-1H-benzo[d]imidazol-2-yl)-N-hydroxyheptanamide] was tested, and the median survival [1] was 45 days, the “daratumumab-mediated apoptosis via cross-linking” value [2] was “higher” and the IRF-1 expression [3] was “increased”. The “expression of c-Jun and c-Fos” value [4] was “increased”, the viability at 2.5 µM [5] was 55.5% and the viability at 2.5 µM [6] was 25.6%.
